pIC50: −log10 of the molar value.
How the values were obtained:
[1] = target: T1, Human immunodeficiency virus type 1 integrase (Human immunodeficiency virus 1, UniProt Q7ZJM1); assay: Inhibition of HIV1 recombinant integrase 3'-processing and strand transfer activity using 21-mer U5B/U5A duplex oligonucleotides after 1 hr; conditions: for pIC50: read-out: IC50
[2] = target: T1, Human immunodeficiency virus type 1 integrase; assay: Inhibition of HIV1 integrase

T1 sequence (Q7ZJM1 whole entry): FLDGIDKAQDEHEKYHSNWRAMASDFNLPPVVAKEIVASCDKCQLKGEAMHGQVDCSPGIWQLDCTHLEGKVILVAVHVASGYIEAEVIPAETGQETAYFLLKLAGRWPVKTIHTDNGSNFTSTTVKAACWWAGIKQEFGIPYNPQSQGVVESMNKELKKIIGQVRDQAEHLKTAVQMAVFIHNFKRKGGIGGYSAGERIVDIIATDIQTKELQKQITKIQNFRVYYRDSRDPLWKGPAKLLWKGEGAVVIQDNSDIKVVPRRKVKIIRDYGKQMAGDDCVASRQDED

For `CCOC(=O)CC(=O)NCc1ccc(F)cc1`, the pIC50 [1] was < 4.00.
Compound `CCOC(=O)CC(=O)NS(=O)(=O)c1ccc(C)cc1` has a pIC50 [1] of 3.30.
Work on `CCOC(=O)CC(=O)Nc1ccc2cccc(O)c2n1` yielded a pIC50 [1] of 4.38.
`CCOC(=O)CC(=O)Nc1cc(C(=O)O)ccc1O` was tested, and the pIC50 [1] was < 3.52.
`CCOC(=O)CC(=O)Nc1ccc(C)cc1[N+](=O)[O-]` was tested, and the IC50 [1] was “Not Active”.
For `Cc1ccc(NC(=O)CC(=O)O)c([N+](=O)[O-])c1`, the pIC50 [1] was < 4.00.
`CCOC(=O)CC(=O)Nc1ccc(C)cc1` was tested, and the pIC50 [1] was 4.30.
In the case of `CCOC(=O)CC(=O)Nc1c(Cl)cccc1Cl`, the pIC50 [1] was < 4.00.
`Cc1ccc2c(O)c(C(=O)O)ccc2n1` gave a pIC50 [2] of 4.33.
For `CCOC(=O)CC(=O)Nc1ccc(C(=O)O)cc1`, the pIC50 [1] was 5.70.
`Cc1ccc2ccc(C(=O)O)c(O)c2n1` was tested, and the pIC50 [2] was < 4.00.
`CCOC(=O)CC(=O)Nc1ccccc1[N+](=O)[O-]` was tested, and the IC50 [1] was “Not Active”.

Source: ChEMBL document CHEMBL1811819, “Ethyl malonate amides: a diketo acid offspring fragment for HIV integrase inhibition” (Bioorg Med Chem, 2011)
